Each structure is given as a SMILES string.

This experiment has as its system F. tularensis Schu4. Put plainly: microbe, parasite or virus in culture. The settings on record: Francisella tularensis, SCHU4, 44 h, read-out: IC50 of F. tularensis Schu4 growth inhibition. It counts as cell-based.

A word on the IC50: it is the concentration that inhibits the measured activity by half. As to `O=CN(O)CCCP(=O)(O)O` [fosmidomycin], the IC50 was 5 µM.
